Results published in the NIST ThermoML archive (doi:10.1016/j.tca.2012.10.004).
± gives the expanded uncertainty stated by the source.

Columns and labels:
[1] = relative permittivity at zero frequency (dimensionless); settings: 101 kPa, Liquid, Coaxial cylinder capacitor
[2] = refractive index (Na D-line) (dimensionless); settings: 101.33 kPa, Liquid, Standard Abbe refractometry
[3] = 101 kPa, Liquid, Pycnometric method
[4] = relative permittivity at zero frequency (dimensionless); xn = mol fraction of the nth substance listed; settings: 101 kPa, Liquid, Coaxial cylinder capacitor, x2 = 0
[5] = refractive index (Na D-line) (dimensionless); xn = mol fraction of the nth substance listed; settings: 101 kPa, Liquid, Standard Abbe refractometry, x2 = 0
[6] = xn = mol fraction of the nth substance listed; settings: 101 kPa, Liquid, Pycnometric method, x2 = 0

CN(CCO)CCO [N-methyldiethanolamine]
Settings	mass density, [3] [kg/m3]	refractive index, [2]	relative permittivity at zero frequency, [1]
293.15 K	1041.6 ± 0.5	1.46935 ± 0.00037	22.9 ± 0.9
298.15 K	1037.9 ± 0.5	1.46724 ± 0.00037	22.4 ± 0.9
303.15 K	1034.1 ± 0.5	1.46532 ± 0.00037	21.8 ± 0.9
308.15 K	1030.3 ± 0.5	1.4631 ± 0.00037	21.3 ± 0.9
313.15 K	1026.5 ± 0.5	1.46074 ± 0.00037	20.8 ± 0.8
318.15 K	1022.7 ± 0.5	1.45892 ± 0.00037	20.3 ± 0.8
323.15 K	1018.9 ± 0.5	1.45708 ± 0.00037	19.8 ± 0.8
328.15 K	1015 ± 0.5	1.45513 ± 0.00037	19.3 ± 0.8

O=S1(=O)CCCC1 [sulfolane]
Settings	mass density, [3] [kg/m3]	refractive index, [2]	relative permittivity at zero frequency, [1]
293.15 K	1270.8 ± 0.6	1.4854 ± 0.00037	44.5 ± 1.8
298.15 K	1266.5 ± 0.6	1.4836 ± 0.00037	44 ± 1.8
303.15 K	1262 ± 0.7	1.4814 ± 0.00037	43.4 ± 1.7
308.15 K	1257.6 ± 0.7	1.4796 ± 0.00037	42.8 ± 1.7
313.15 K	1253.2 ± 0.7	1.478 ± 0.00037	42.2 ± 1.7
318.15 K	1248.7 ± 0.7	1.4762 ± 0.00037	41.6 ± 1.7
323.15 K	1244.2 ± 0.7	1.4744 ± 0.00037	41.1 ± 1.6
328.15 K	1240.3 ± 0.7	1.4726 ± 0.00037	40.4 ± 1.6

O=S1(=O)CCCC1 [sulfolane] + CN(CCO)CCO
Settings	mass density, [6] [kg/m3]	refractive index, [5]	relative permittivity at zero frequency, [4]
293.15 K	1270.8 ± 0.6	1.4854 ± 0.00037	44.5 ± 1.8
298.15 K	1266.5 ± 0.6	1.4836 ± 0.00037	44 ± 1.8
303.15 K	1262 ± 0.7	1.4814 ± 0.00037	43.4 ± 1.7
308.15 K	1257.6 ± 0.7	1.4796 ± 0.00037	42.8 ± 1.7
313.15 K	1253.2 ± 0.7	1.478 ± 0.00037	42.2 ± 1.7
318.15 K	1248.7 ± 0.7	1.4762 ± 0.00037	41.6 ± 1.7
323.15 K	1244.2 ± 0.7	1.4744 ± 0.00037	41.1 ± 1.6
328.15 K	1240.3 ± 0.7	1.4726 ± 0.00037	40.4 ± 1.6
